Measurements from patent US20090004185A1, “AMINO-SUBSTITUTED QUINAZOLINE DERIVATIVES AS INHIBITORS OF BETA-CATENIN/TCF-4 PATHWAY AND CANCER TREATMENT AGENTS” (WYETH, priority 2007, published 2009).

Columns and labels:
β-catenin/Tcf-4 = assay: cells; assay type: cell-based; conditions: 24 hours of incubation with compound, ratio Firefly/Renilla luciferase
How it was run: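 SW480-derived lines with integrated reporters (Tcf-4-driven firefly luciferase; SV40 firefly as specificity control; SV40 Renilla for cell number/toxicity), treated 24 hours with titrated compounds, final 0.316% DMSO. Dual-luciferase read-out; firefly/Renilla ratio as % of control, duplicate plates, IC50 (nM) from curve fit.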

SV40-Luc = SV40-Luc control luciferase reporter assay, SV 5A8 cell line (SV40-Luc and SV40-R-Luc), control for non-specific inhibitors; assay type: cell-based, human; conditions: SV 5A8 cells derived from SW480, 24 hours of incubation with compound, ratio Firefly/Renilla luciferase
How it was run: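 Read-out is the firefly-to-Renilla luminescence ratio, expressed as % of control and averaged over duplicate plates, from which IC50s were fitted. Renilla under SV40 normalises for cell number and toxicity. SW480-derived lines carried integrated Tcf-4- or SV40-driven firefly reporters; compound exposure lasted 24 h.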

[1] = Homo sapiens, SW480, 24 h, Tcf 33.13 cells derived from SW480
[2] = Homo sapiens, Tcf22C11, 24 h, Tcf 22C11 cells derived from SW480
[3] = Tcf 22C11 cells derived from SW480
[4] = Tcf 33.13 cells derived from SW480

Row | Compound | IC50 (β-catenin/Tcf-4; [1]) [nM] | IC50 (β-catenin/Tcf-4; [2]) [nM] | IC50 (SV40-Luc; Homo sapiens, SV5A8, 24 h) [nM] | IC50 (β-catenin/Tcf-4; [3]) [nM] | IC50 (β-catenin/Tcf-4; [4]) [nM] | IC50 (SV40-Luc) [nM]
1 | O=C(Nc1ccc(CNc2nc(NC3CCC3)nc3ccc(C(F)(F)F)cc23)cc1)c1ccc(Cl)cc1 [Example 166, 4-chloro-N-[4-({[2-(cyclobutylamino)-6-(trifluoromethyl)quinazolin-4-yl]amino}methyl)phenyl]benzamide] | > 9510 | > 9510 | > 9510 |  |  | 
2 | O=C(Nc1ccc(CNc2nc(NCc3ccco3)nc3ccc(C(F)(F)F)cc23)cc1)c1ccc(Cl)cc1 [Example 168, 4-chloro-N-[4-({[2-[(2-furylmethyl)amino]-6-(trifluoromethyl)quinazolin-4-yl]amino}methyl)phenyl]benzamide] | 1280 | 2810 | > 9060 |  |  | 
3 | CN(C)c1nc(NCc2ccc(NC(=O)c3ccc(F)cc3)cc2)c2ccc(-c3ccc(C=O)cc3)cc2n1 [Example 99, N-[4-({[2-(dimethylamino)-7-(4-formylphenyl)quinazolin-4-yl]amino}methyl)phenyl]-4-fluorobenzamide] | 2680 | 6820 | > 17900 |  |  | 
4 | CN(C)c1nc(NCc2ccc(NC(=O)C3CCN(Cc4ccc(F)cc4)CC3)cc2)c2cc(C(F)(F)F)ccc2n1 [Example 154, N-[4-({[2-(dimethylamino)-6-(trifluoromethyl)quinazolin-4-yl]amino}methyl)phenyl]-1-(4-fluorobenzyl)piperidine-4-carboxamide] | 4190 | 3590 | > 8610 |  |  | 
5 | Cc1ccc2c(NCc3ccc(NC(=O)C4CCN(Cc5ccccc5)CC4)cc3)nc(N(C)Cc3ccccc3)nc2c1 [Example 142, 1-benzyl-N-{4-[({2-[benzyl(methyl)amino]-7-methylquinazolin-4-yl}amino)methyl]phenyl}-piperidine-4-carboxamide] | 677 | 573 | > 4280 |  |  | 
6 | Cc1ccc2nc(N(C)C)nc(NCc3ccc(NC(=O)Nc4ccc(Cl)cc4)cc3)c2c1 [Example 178, N-(4-chlorophenyl)-N′-[4-({[2-(dimethylamino)-6-methylquinazolin-4-yl]amino}methyl)phenyl]urea] | 245 | 266 | > 2710 |  |  | 
7 | Cc1ccc2c(NCc3ccc(NC(=O)c4ccc(F)cc4)cc3)nc(N3CCC(N4CCCC4)CC3)nc2c1 [Example 226, 4-fluoro-N-[4-({[7-methyl-2-(4-pyrrolidin-1-ylpiperidin-1-yl)quinazolin-4-yl]amino}methyl)phenyl]benzamide] | 754 | 866 | > 9280 |  |  | 
8 | Cc1ccc2c(NCc3ccc(NC(=O)C4CCN(Cc5ccccc5)CC4)cc3)nc(N3CCN[C@H](C)C3)nc2c1 [Example 143, 1-benzyl-N-{4-[({7-methyl-2-[(3R)-3-methylpiperazin-1-yl]quinazolin-4-yl}amino)methyl]phenyl}piperidine-4-carboxamide] | 1470 | 1930 | > 8870 |  |  | 
9 | Cc1ccc2c(NCc3ccc(NC(=O)C4CCN(Cc5ccccc5)CC4)cc3)nc(N3CCN(C)CC3)nc2c1 [Example 141, 1-benzyl-N-[4-({[7-methyl-2-(4-methylpiperazin-1-yl)quinazolin-4-yl]amino}methyl)phenyl]piperidine-4-carboxamide] | 1330 | 1580 | > 17700 |  |  | 
10 | Cc1cccc2c(NCc3ccc(NC(=O)C4CCN(Cc5ccccc5)CC4)cc3)nc(N(C)C)nc12 [Example 76, 1-benzyl-N-[4-({[2-(dimethylamino)-8-methylquinazolin-4-yl]amino}methyl)phenyl]piperidine-4-carboxamide] | 2150 | 1560 | > 9170 |  |  | 
11 | Cc1ccc2c(NCc3ccc(NC(=O)C4CCN(Cc5ccccc5)CC4)cc3)nc(N(C)CCc3ccccn3)nc2c1 [Example 145, 1-benzyl-N-{4-[({7-methyl-2-[methyl(2-pyridin-2-ylethyl)amino]quinazolin-4-yl}amino)methyl]phenyl}piperidine-4-carboxamide] | 1230 | 1350 | > 16700 |  |  | 
12 | Cc1ccc2c(NCc3ccc(NC(=O)C4CCN(C)CC4)cc3)nc(N(C)C)nc2c1 [Example 243, N-[4-({[2-(dimethylamino)-7-methylquinazolin-4-yl]amino}methyl)phenyl]-1-methylpiperidine-4-carboxamide] | 1680 | 1920 | > 23100 |  |  | 
13 | CN(C)c1nc(NCc2ccc(NC(=O)C3CCN(Cc4ccccc4)CC3)cc2)c2cc(I)ccc2n1 [Example 74, 1-benzyl-N-[4-({[2-(dimethylamino)-6-iodoquinazolin-4-yl]amino}methyl)phenyl]piperidine-4-carboxamide] | 1380 | 950 | > 8060 |  |  | 
14 | Cc1ccc2nc(N(C)C)nc(NCc3ccc(NC(=O)c4ccc(F)cc4)cc3)c2c1 [Example 38, N-[4-({[2-(dimethylamino)-6-methylquinazolin-4-yl]amino}methyl)phenyl]-4-fluorobenzamide] |  |  | > 11600 | 1620 | 2050 | 
15 | CCN1CCN(c2nc(NCc3ccc(NC(=O)c4ccc(F)cc4)cc3)c3cc(C)ccc3n2)CC1 [Example 57, N-[4-({[2-(4-ethylpiperazin-1-yl)-6-methylquinazolin-4-yl]amino}methyl)phenyl]-4-fluorobenzamide] | 1600 | 923 | > 10000 |  |  | 
16 | COC(=O)c1ccc2nc(N(C)C)nc(NCc3ccc(NC(=O)c4ccc(F)cc4)cc3)c2c1 [Example 70, methyl 2-(dimethylamino)-4-({4-[(4-fluorobenzoyl)amino]benzyl}amino)quinazoline-6-carboxylate] | 1480 | 2140 | > 10600 |  |  | 
17 | Cc1ccc2c(NCc3ccc(NC(=O)c4ccc(F)cc4)cc3)nc(NCCN3CCCC3)nc2c1 [Example 237, 4-fluoro-N-{4-[({7-methyl-2-[(2-pyrrolidin-1-ylethyl)amino]quinazolin-4-yl}amino)methyl]phenyl}benzamide] | 829 | 888 | > 5010 |  |  | 
18 | C/C=C/c1ccc2c(NCc3ccc(NC(=O)c4ccc(F)cc4)cc3)nc(N(C)C)nc2c1 [Example 96, N-{4-[({2-(dimethylamino)-7-[(1E)-prop-1-en-1-yl]quinazolin-4-yl}amino)methyl]phenyl}-4-fluorobenzamide] | 511 | 497 | > 2540 |  |  | 
19 | O=C(Nc1ccc(CNc2nc(NCc3ccco3)nc3ccccc23)cc1)c1ccc(F)cc1 [Example 124, 4-fluoro-N-{4-[({2-[(2-furylmethyl)amino]quinazolin-4-yl}amino)methyl]phenyl}benzamide] | 332 | 674 | > 1340 |  |  | 
20 | Cc1ccc2nc(N(C)C)nc(NCc3ccc(NC(=O)c4ccc(F)cc4)cc3)c2c1 [Example 39, N-[4-({[2-(dimethylamino)-6-methylquinazolin-4-yl]amino}methyl)phenyl]-4-fluorobenzamide] |  |  |  | 428 | 217 | > 5820
21 | Cc1ccc2nc(N(C)C)nc(NCc3ccc(NC(=O)C4CCN(Cc5ccccc5)CC4)cc3)c2c1 [Example 148, 1-benzyl-N-[4-({[2-(dimethylamino)-6-methylquinazolin-4-yl]amino}methyl)phenyl]piperidine-4-carboxamide] | 1030 | 1070 | > 9170 |  |  | 
22 | CN(C)c1nc(NCc2ccc(NC(=O)c3ccc(F)cc3)cc2)c2ccc(-c3cc4ccccc4o3)cc2n1 [Example 101, N-[4-({[7-(1-benzofuran-2-yl)-2-(dimethylamino)quinazolin-4-yl]amino}methyl)phenyl]-4-fluorobenzamide] | 2950 | 2250 | > 17600 |  |  | 
23 | Cc1ccc2c(NCc3ccc(NC(=O)C4CCN(Cc5ccccc5)CC4)cc3)nc(N3CCC(N4CCCC4)CC3)nc2c1 [Example 135, 1-benzyl-N-[4-({[7-methyl-2-(4-pyrrolidin-1-ylpiperidin-1-yl)quinazolin-4-yl]amino}methyl)phenyl]piperidine-4-carboxamide] | 853 | 965 | > 8090 |  |  | 
24 | N-[4-({[6-nitro-2-(methylamino)quinazolin-4-yl]amino}methyl)phenyl]nicotinamide [Example 188] |  |  |  | > 23300 | > 23300 | > 23300
25 | Cc1ccc2c(N[C@H](C)c3ccc(NC(=O)c4ccc(Cl)nc4)cc3)nc(N(C)C)nc2c1 [Example 270, (R)-6-chloro-N-(4-(1-(2-(dimethylamino)-7-methylquinazolin-4-ylamino)ethyl)phenyl)nicotinamide] | 372 | 429 | > 10100 |  |  | 
26 | CCCC/C=C/c1ccc2nc(N(C)C)nc(NCc3ccc(C(=O)Nc4ccc(F)cc4)cc3)c2c1 [Example 175, E-(4-((2-dimethylamino)-6-(hex-1-enyl)quinazolin-4-ylamino)methyl)-N-(4-fluorophenyl)benzamide] |  |  |  | 712 | 537 | > 4680
27 | C[C@H](Nc1nc(N(C)C)nc2cc(I)ccc12)c1ccc(NC(=O)c2ccc(Cl)nc2)cc1 [Example 105, 6-chloro-N-[4-((1S)-1-{[2-(dimethylamino)-7-iodoquinazolin-4-yl]amino}ethyl)phenyl]nicotinamide] | 1470 | 3780 | > 8210 |  |  | 
